Measurements: patent US6903052B2, “Nematicidal compositions and methods” (Divergence, Inc., priority 2002, dated 2005)

How the values were obtained:
C. elegans [1] = experiment: Rescue of C. elegans delta-12 FAT RNAi feeding phenotype by fatty acid methyl esters; format: cell-based, Caenorhabditis elegans; conditions: 3 mM added to the NGM media
Excerpt: RNAi by feeding: C. elegans can be grown on lawns of E. coli genetically engineered to produce double stranded RNA (dsRNA) designed to inhibit delta-12 fat-2 expression. Briefly, E. coli were transformed with a genomic fragment of a portion of the C. elegans fat-2 gene sequence, specifically a fragment 651 nucleotides long, containing the entire first exon and terminating just before the conserved intron splice junction between the first exon and first intron. This construct encodes approximately the first 217 amino acids of the C. elegans delta-12 FAT gene. The 651 nucleotide genomic fragment was cloned into an E. coli expression vector between opposing T7 polymerase promoters. The clone was then transformed into a strain of E. coli that carries an IPTG-inducible T7 polymerase. As a control, E. coli was transformed with a gene encoding the Green Fluorescent Protein (GFP). Feeding RNAi was initiated from C. elegans eggs or from C. elegans […]. […] When feeding RNAi was started from C. elegans L4 larvae at 23° C. on NGM plates containing IPTG and E. coli expressing the C. elegans […] […] The sequence of the fat-2 gene is of sufficiently high complexity (i.e., unique) such that the RNAi is not likely to represent cross reactivity with other genes. […]

C. elegans [2] = experiment: Nematicidal activity of single fatty acid methyl ester emulsions against Caenorhabditis elegans (Example 4); format: cell-based
Protocol: Mixed stage Caenorhabditis elegans were washed off plates seeded with OP50 bacteria using M9 solution. 250 μl of the M9 solution, which contained about 50 worms, was pipetted into each well of a 24-well plate.
Fatty acid methyl ester emulsions were prepared following the teachings of Kim et al (U.S. Pat. No. 5,698,592). Briefly, 1 ml 1% stock solution emulsions were prepared by mixing 10 μl of fatty acid methyl ester with 20 μl of the surfactant Igepal CO 630 in a 1.5 ml eppendorf tube. After careful mixing of fatty acid and Igepal CO 630, 850 μl of ddH20 was added and mixed by gentle pipetting until a homogeneous solution was obtained. Finally, 120 μl of pure isopropanol was added and mixed by gentle pipetting. This stock solution was then used to produce various fatty acid methyl ester dilution emulsions in 24-well plate assays.
To each well, fatty acid emulsions or control emulsions were added and rapidly mixed by swirling. Nematode viability was scored by visual observation and motility assays at various time points 24 hours following addition of emulsions or controls. The fatty acid emulsions tested were methyl esters of nonanoic (pelargonic) acid, ricinoleic acid, vernolic acid, linoleic acid, oleic acid, and control emulsions lacking fatty acids.

C. elegans [3] = experiment: Nematicidal activity of fatty acid methyl ester emulsions, spectrum (Example 8); format: cell-based, Caenorhabditis elegans; conditions: C. elegans mixed stage
Protocol: (§1) Briefly, the indicated fatty acid emulsions were added and rapidly mixed by swirling. Nematode viability was scored by visual observation and motility assays 24 hours following addition of emulsions (48 hours for plant parasitic nematodes Meloidogyne and Heterodera species). The fatty acid emulsions tested were methyl esters of nonanoic (pelargonic) acid, ricinelaidic acid, ricinoleic acid, vernolic acid, linoleic acid, and oleic acid. […] Results shown are mean % values obtained from multiple independent experiments
(§2) The Caenorhabiditis elegans were mixed stage populations. Similar effects seen on several other free-living nematode species. The Parastrongyloides trichosuri (parasite of Australian bushtail possum) were dauer-like infective 3rd stage larva. Similar effects are also seen against free-living stages. The Meloidogyne incognita and Meloidogyne javanica (root knot nematode) were 2nd stage juveniles (dauer-like infective stage). The Heterodera glycines (soybean cyst nematode) were 2nd stage juveniles (dauer-like infective stage). Finally, the Pratylenchus scribneri (corn lesion nematode) were mixed stage populations.

P. trichosuri = experiment: as above; format: cell-based, Parastrongyloides trichosuri; conditions: P. trichosuri infective 3rd stage larva
Protocol: as §1, §2

M. incognita = experiment: as above; format: cell-based, Meloidogyne incognita; conditions: M. incognita 2nd stage juveniles, scored at 48 hours
Protocol: as §1, §2

M. javanica = experiment: as above; format: cell-based, Meloidogyne javanica; conditions: M. javanica 2nd stage juveniles, scored at 48 hours
Protocol: as §1, §2

H. glycines = experiment: as above; format: cell-based, Heterodera glycines; conditions: H. glycines 2nd stage juveniles, scored at 48 hours
Protocol: as §1, §2

P. scribneri = experiment: as above; format: cell-based, Pratylenchus scribneri; conditions: P. scribneri mixed stage
Protocol: as §1, §2

C. elegans [4] = experiment: Nematicidal activity of emulsions made with Tween-20 (replacing Igepal CO 630) against C. elegans; format: cell-based, Caenorhabditis elegans; conditions: Tween-20 emulsion
Protocol: Some nematodes assayed as described in Example 9 lacked tolerance to emulsions made with the surfactant Igepal CO 630. For this reason some assays were repeated with Tween-20-based emulsions.
Briefly, 1 ml 1% stock solution emulsions were prepared by mixing 10 μl of fatty acid methyl ester with 20 μl of the surfactant Tween-20 in a 1.5 ml eppendorf tube. After careful mixing of fatty acid and Tween-20, 850 μl of ddH20 was added and mixed by gentle pipetting until a homogeneous solution was obtained. Finally, 120 μl of pure isopropanol was added and mixed by gentle pipetting. This stock solution was then used to produce various fatty acid methyl ester dilution emulsions in 24-well plate assays.

C. elegans [5] = experiment: Nematicidal activity of emulsions made with cyclodextrins (replacing isopropanol) against C. elegans; format: cell-based, Caenorhabditis elegans; conditions: igepal CO 630 / 2-Hydroxypropyl-β-Cyclodextrin emulsion
Excerpt: In an effort to increase the bioavailability of fatty acid methyl esters in emulsions, isopropanol was replaced with one of two cyclodextrins (Methyl-β-Cyclodextrin or 2-Hydroxypropyl-β-Cyclodextrin).

tomato seedlings = experiment: Phytotoxicity evaluation on tomato seedlings; format: in vivo; conditions: 250 μl of 1% emulsion applied to stem-media interface of two-week seedlings
Protocol: Sterilized tomato seeds were germinated in magenta jars containing Gamborg's agar media. After two weeks of growth, seedlings were treated with 250 μl of 1% fatty acid methyl ester emulsion (nonanoic acid, ricinoleic acid, ricinelaidic acid, oleic acid, or a control emulsion lacking any fatty acid), applied directly to the stem-media interface. Tomato seedlings were scored at various times after application of emulsions.

[6] = tested on: free-living, animal parasitic, and plant parasitic nematodes; experiment: Nematicidal activity across the spectrum of nematodes, summary statement (Example 8); format: cell-based
Protocol: as §1, §2

B. malayi = experiment: Nematicidal activity of tween-based emulsions against microfilarial nematodes; format: cell-based, Brugia malayi
Protocol: To each well, tween-based fatty acid emulsions were added and rapidly mixed by swirling. Nematode microfilaria viability was scored by visual observation of motility at 24 and 48 hours following addition of emulsions. The fatty acid emulsions tested were methyl esters of ricinoleic acid, vernolic acid, ricinelaidic acid, oleic acid, and control emulsions lacking fatty acids. The results of this study are presented in Table 7 as the percentage of non-motile microfilaria 24 hours after inoculation and in Table 8 as the percentage of non-motile microfilaria 48 hours after inoculation

CCCCC/C=C\C/C=C\CCCCCCCC(=O)OC [Linoleic Acid (C18-methyl ester), linoleic acid methyl ester, reference compound]
Rescue of the delta-12 FAT RNAi feeding phenotype (C. elegans [1]): partial rescue
Percentage of Worm Death (C. elegans [2]; 0.003% emulsion, 1 hr): 0-5%
Percentage of Worm Death (C. elegans [2]; 0.003% emulsion, 6 hr): 0-5%
Percentage of Worm Death (C. elegans [2]; 0.003% emulsion, 24 hr): 0-5%
Percentage of Worm Death (C. elegans [2]; 0.1% emulsion, 1 hr): 0-5%
Percentage of Worm Death (C. elegans [2]; 0.1% emulsion, 6 hr): 0-5%
Percentage of Worm Death (C. elegans [2]; 0.1% emulsion, 24 hr): 0-5%
% Worm Death (24 hr) (C. elegans [3]; 0.001% solution): <10%
% Worm Death (24 hr) (C. elegans [3]; 0.01% solution): <10%
% Worm Death (24 hr) (C. elegans [3]; 0.1% solution): <10%
% Worm Death (24 hr) (P. trichosuri; 0.01% solution): ˜25%
% Worm Death (24 hr) (P. trichosuri; 0.1% solution): ˜25%
% Worm Death (24 hr) (M. incognita; 0.01% solution): 20%
% Worm Death (24 hr) (M. incognita; 0.1% solution): 20%
% Worm Death (48 hr) (M. javanica; 0.01% solution): 0-5%
% Worm Death (48 hr) (M. javanica; 0.1% solution): 20%
% Worm Death (24 hr) (H. glycines; 0.001% solution): <20%
% Worm Death (24 hr) (H. glycines; 0.01% solution): <20%
% Worm Death (24 hr) (H. glycines; 0.1% solution): <20%
% Worm Death (24 hr) (P. scribneri; 0.01% solution): <20%
% Worm Death (24 hr) (P. scribneri; 0.1% solution): <20%
% Worm Death (24 hr) (C. elegans [4]; 0.01% solution): <10%
% Worm Death (24 hr) (C. elegans [4]; 0.1% solution): <10%
% Worm Death (24 hr) (C. elegans [5]; 0.01% solution): <10%
% Worm Death (24 hr) (C. elegans [5]; 0.1% solution): <10%

CCCCCCC(O)C/C=C/CCCCCCCC(=O)OC (stereo not drawn) [Ricinelaidic, 12-hydroxy-trans-9-octadecenoic acid methyl ester]
Visible effects on tomato seedlings (tomato seedlings): none of the tomatoes treated with the other fatty acid methyl ester emulsions showed visible effects
% Worm Death (24 hr) (C. elegans [3]; 0.001% solution): 75%
% Worm Death (24 hr) (C. elegans [3]; 0.01% solution): 100%
% Worm Death (24 hr) (C. elegans [3]; 0.1% solution): 100%
% Worm Death (24 hr) (P. trichosuri; 0.01% solution): 100%
% Worm Death (24 hr) (P. trichosuri; 0.1% solution): 100%
% Worm Death (24 hr) (M. incognita; 0.001% solution): 97%
% Worm Death (24 hr) (M. incognita; 0.01% solution): ˜99%
% Worm Death (24 hr) (M. incognita; 0.1% solution): ˜99%
% Worm Death (48 hr) (M. javanica; 0.001% solution): ˜60%
% Worm Death (48 hr) (M. javanica; 0.01% solution): 100%
% Worm Death (48 hr) (M. javanica; 0.1% solution): 100%
% Worm Death (24 hr) (H. glycines; 0.001% solution): 100%
% Worm Death (24 hr) (H. glycines; 0.01% solution): 100%
% Worm Death (24 hr) (H. glycines; 0.1% solution): 100%
% Worm Death (24 hr) (P. scribneri; 0.01% solution): ˜40%
% Worm Death (24 hr) (P. scribneri; 0.1% solution): ˜70%
Breadth of nematicidal activity (in words) [6]: favorable nematicidal activity against a wide spectrum of divergent nematode genera
Nematicidal activity (in words) ([6]; concentrations of 0.1% and 0.01%): strongly nematicidal
% Worm Death (24 hr) (C. elegans [4]; 0.001% solution): 60%
% Worm Death (24 hr) (C. elegans [4]; 0.01% solution): 100%
% Worm Death (24 hr) (C. elegans [4]; 0.1% solution): 100%
percentage of non-motile microfilaria (B. malayi; 24 hrs post-inoculation, 0.0008%): 0%
percentage of non-motile microfilaria (B. malayi; 24 hrs post-inoculation, 0.0016%): 19.1%
percentage of non-motile microfilaria (B. malayi; 24 hrs post-inoculation, 0.003%): 100%
percentage of non-motile microfilaria (B. malayi; 24 hrs post-inoculation, 0.005%): 100%
percentage of non-motile microfilaria (B. malayi; 24 hrs post-inoculation, 0.0067%): 100%
percentage of non-motile microfilaria (B. malayi; 24 hrs post-inoculation, 0.008%): 100%
percentage of non-motile microfilaria (B. malayi; 48 hrs post-inoculation, 0.0008%): 0%
percentage of non-motile microfilaria (B. malayi; 48 hrs post-inoculation, 0.0016%): 49.4%
percentage of non-motile microfilaria (B. malayi; 48 hrs post-inoculation, 0.003%): 100%
percentage of non-motile microfilaria (B. malayi; 48 hrs post-inoculation, 0.005%): 100%
percentage of non-motile microfilaria (B. malayi; 48 hrs post-inoculation, 0.0067%): 100%
percentage of non-motile microfilaria (B. malayi; 48 hrs post-inoculation, 0.008%): 100%
Microfilarialcidal activity (in words) (B. malayi; tween-based emulsions): strong microfilarialcidal activity
